Experimental data as given in US11786514B2, “Sustained release aminopyridine composition” (priority 2003, dated 2023).

What was measured:
[1] = Single dose, dose proportionality pharmacokinetics and safety in patients with multiple sclerosis (Example 4); format: in vivo, human
Method: This example details the pharmacokinetic properties of Fampridine-SR in tablets of the present invention administered to patients with multiple sclerosis. Plasma samples were analyzed for fampridine using a validated LC/MS/MS assay with a sensitivity of 2 ng/mL. Noncompartmental pharmacokinetic parameter values were calculated using standard methodology.
This was an open-label, multi-center, dose proportionality study of orally administered fampridine in patients with multiple sclerosis. Single doses of fampridine were to be given in escalating doses (5 mg, 10 mg, 15 mg, and 20 mg) with at least a four-day interval between administration of each dose of drug. Safety evaluations were to be performed during the 24 hour period following administration of fampridine and blood samples were to be taken at the following times to determine pharmacokinetic parameters: hour 0 (pre-dose), hours 1-8, and hours 10, 12, 14, 18, and 24.
Twenty-three subjects received all 4 treatments, and one subject received only 3 treatments; data from all treatments were analyzed. Dose-dependent parameters (e.g., peak plasma concentration and areas-under-the curve) were normalized to a 10 mg dose for among-dose comparisons.

[2] = Multiple oral dose pharmacokinetics in patients with SCI (Example 3); details: both sexes, human, in vivo
Method: This example details the plasma concentration of different dosage tablets of a aminopyridine in compositions of the present invention administered to patients with spinal cord injury. Pharmacokinetic results are presented for the subset of 11 patients who completed all dose levels. […] The time of the peak and the plasma elimination half-lives were independent of dose. […] The […] of fampridine ranged from 5.7 to 6.9 hours. There were no apparent differences between males and females.

[3] = Steady state pharmacokinetics and safety in patients with MS (Example 5); format: in vivo, human
Method: This example describes the results of an open-label study to assess the steady state pharmacokinetics of orally administered fampridine (4-aminopyridine) compositions of the present invention in subjects with Multiple Sclerosis. […] Blood samples for pharmacokinetic analysis were collected on Days 1, 7/8, and 14/15 at the following intervals: immediately prior to drug administration (baseline), hourly for the first 8 hours, and 10, 12, and 24 hours post-dose. Additional blood samples were collected 14, 18, and 20 hours post-dose on Day 14, and 30 and 36 hours post-dose on Day 15.

[4] = Single escalating dose pharmacokinetics and tolerability in patients with chronic incomplete SCI (Example 6)
Method: Each patient was to receive each dose in an ascending fashion. Each dose was to be followed by a 7-day washout period. […] Patients were to continue their fast for 4 hours after dosing and then a standard meal was to be served. Blood samples for pharmacokinetic analysis were to be obtained at Hour 0 (immediately preceding study drug administration) and 1, 2, 3, 4, 5, 6, 8, 10, 12, 16, 20, and 24 hours after each dose. A baseline urine sample was to be collected prior to dosing and urine was to be collected for 24 hours after administration of the study drug at the following intervals: 0.1 to 4 hours; 4.1 to 8 hours; 8.1 to 12 hours; and 12.1 to 24 hours.

[5] = all doses 5-20 mg, mean and 95% confidence interval, patients with MS
[6] = 20 mg twice daily for two weeks, patients with MS
[7] = single doses 10-25 mg, patients with chronic incomplete SCI

Compound: Nc1ccncc1 [fampridine, 4-aminopyridine]
- terminal half-life [1, 5]: 5.47 (5.05, 5.89) h
- terminal rate constant [1, 5]: 0.14 (0.13, 0.15) h^−1
- area-under-the-concentration-time curve (normalized to a 10 mg dose) ([1]; human, in vivo): 254 (238, 270) ng-h/ml
- clearance ([1]; human, in vivo): 637 mL/min
- differences between pharmacokinetic parameters (AUC, Cmax, t1/2) normalized to the 10.0 mg dose ([1]; human, in vivo): no significant differences
- extrapolated area-under-the-concentration-time curve (normalized to a 10 mg dose) ([1]; human, in vivo): 284 (266, 302) ng-h/ml
- observed peak plasma fampridine concentration (normalized to a 10 mg dose) ([1]; human, in vivo): 24.12 (23.8, 26.6) ng/ml
- tolerability ([1]; single doses 5-20 mg, patients with MS): well tolerated
- Tmax [2]: 2.2 to 3 h
- half-life [2]: 342 to 414 min
- Cmax ([2]; po, 60 mg): 152 ng/mL
- changes in corrected QT intervals or QRS amplitudes [3, 6]: no apparent clinically significant changes
- changes in mean clinical laboratory values, vital signs, or physical examination findings from baseline to last visit [3, 6]: no clinically significant changes
- most common treatment-related adverse event [3, 6]: Dizziness
- other treatment-related adverse events [3, 6]: nausea, ataxia, insomnia, and tremor
- tolerability ([3]; 20 mg/dose twice daily for two weeks, subjects with multiple sclerosis): well tolerated
- Cmax ([4]; 25 mg single dose, fasted, patients with chronic incomplete SCI): 67.4 ng/mL
- time of peak concentration (mean tmax) post-dose, over dose levels ([4]; human, in vivo): 3 to 4 h
- Cmax ([4]; human, in vivo, 10 mg): 27.7 ng/mL
- AUC0-24h as percentage of AUC0-∞ [4, 7]: at least 92%
- mean plasma half-life (t1/2), independent of dose [4, 7]: approximately 6 hours
